The text below walks through data of patent publication US9499509B2, “Dihydrochalcone derivatives and their use as antibiotic agents” (UNIVERSITÉ DU QUÉBEC À CHICOUTIMI, priority 2012, dated 2016).

This assay has as its system S. aureus. Kind of assay: Antibiotic assay (resazurin, Example 1), S. aureus strains of Table 3. The format is cell-based, Staphylococcus aureus. From the text: Bacteria Strain. […] The MRSA were obtained as further described below.
Antibiotic agents. Cyprofloxacin and erythromycin were provided by Sigma-Aldrich. Gentamicin sulfate and vancomycin hydrochloride were provided by Calbiochem.
Background: The colour change of resazurin is a common sign of viable cells or microbes.

Setting [1] is: S. aureus 14108, read-out: IC50.
Where [2] appears, read: S. aureus 14118, read-out: IC50.
[3] abbreviates: S. aureus 14154, read-out: IC50.
The mark [4] stands for this setting: S. aureus 14094, read-out: IC50.

Structures are written as SMILES. Values after ≈ are worked out from the molar mass of the structure shown. Structures can show the parent of a compound that is named as a salt. Where two headings read alike, the source gives them in different places. Where only a bound is given, the exact number is not on record here.

For orientation: IC50 means the concentration at which inhibition is half-maximal. With `O=C(O)c1cn(C2CC2)c2cc(N3CCNCC3)c(F)cc2c1=O` [Ciprofloxacin, reference compound], the IC50 runs as follows: under setting [1], < 1560 nM; under setting [2], < 1560 nM; under setting [3], < 1560 nM; (Staphylococcus aureus, S. aureus 14094, read-out: IC50) < 1560 nM. The MIC worked out at 87.6 µM (≈ 29 µg/mL) (Staphylococcus aureus, S. aureus 14094, read-out: Minimum Inhibitory Concentration (MIC)); 66.8 µM (≈ 22.1 µg/mL) (Staphylococcus aureus, S. aureus 14108, read-out: Minimum Inhibitory Concentration (MIC)); 65.1 µM (≈ 21.6 µg/mL) (Staphylococcus aureus, S. aureus 14118, read-out: Minimum Inhibitory Concentration (MIC)); 25.1 µM (≈ 8.32 µg/mL) (Staphylococcus aureus, S. aureus 14154, read-out: Minimum Inhibitory Concentration (MIC)).
Turning to `O=C(CCc1ccccc1)c1c(O)cc(O)c(C/C=C/c2ccc(O)cc2)c1O` [Compound III], the “Minimum Inhibitory Concentration (MIC)” value is reported as “(5.5) μM” (S. aureus 14094), “(5.25) μM” (S. aureus 14108), “(3.46) μM” (S. aureus 14118) and “(4.95) μM” (S. aureus 14154). Besides, the IC50 was found to be 2400 ± 200 nM under setting [4], 2700 ± 200 nM under setting [1], 2300 ± 100 nM under setting [2] and 1500 ± 100 nM under setting [3].
As for `COc1ccc(CCC(=O)c2c(O)cc(O)c(C/C=C/c3ccc(O)cc3)c2O)cc1` [Compound II], the “Minimum Inhibitory Concentration (MIC)” value by setting is: (S. aureus 14094) “(6.2) μM”; (S. aureus 14108) “(6.81) μM”; (S. aureus 14118) “(5.05) μM”; (S. aureus 14154) “(4.88) μM”. The IC50 came to 3500 ± 300 nM under setting [4], 3300 ± 200 nM under setting [1] and 2000 ± 100 nM under setting [3].
For the compound `COc1cc(O)c(C(=O)CCc2ccc(O)cc2)c(O)c1C/C=C/c1ccc(O)cc1` [Compound I], the “Minimum Inhibitory Concentration (MIC)” value reads like this: (S. aureus 14094) “(6.54) μM”; (S. aureus 14108) “(8.73) μM”; (S. aureus 14118) “(5.27) μM”; (S. aureus 14154) “(4.37) μM”. Besides, the IC50 is, setting by setting: under setting [4], 3500 ± 300 nM; under setting [1], 2700 ± 300 nM; under setting [2], 3500 ± 100 nM; under setting [3], 2300 ± 100 nM.
For `CN[C@H](CC(C)C)C(=O)N[C@H]1C(=O)N[C@@H](CC(N)=O)C(=O)N[C@H]2C(=O)N[C@H]3C(=O)N[C@H](C(=O)N[C@H](C(=O)O)c4cc(O)cc(O)c4-c4cc3ccc4O)[C@H](O)c3ccc(c(Cl)c3)Oc3cc2cc(c3O[C@@H]2O[C@H](CO)[C@@H](O)[C@H](O)[C@H]2O[C@H]2C[C@](C)(N)[C@H](O)[C@H](C)O2)Oc2ccc(cc2Cl)[C@H]1O` [Vancomycin, vancomycin hydrochloride, reference compound], the concentration for half-maximal inhibition (IC50) was determined as 280 ± 40 nM (Staphylococcus aureus, S. aureus 14094); 270 ± 40 nM (Staphylococcus aureus, S. aureus 14108); 240 ± 30 nM (Staphylococcus aureus, S. aureus 14118); 280 ± 50 nM (Staphylococcus aureus, S. aureus 14154). For the same compound, the MIC (Staphylococcus aureus, read-out: Minimum Inhibitory Concentration (MIC), S. aureus 14094) came to 0.41 µM; the MIC (Staphylococcus aureus, read-out: Minimum Inhibitory Concentration (MIC), S. aureus 14108) turned out to be 0.44 µM; the MIC (Staphylococcus aureus, read-out: Minimum Inhibitory Concentration (MIC), S. aureus 14118) is 0.38 µM; the MIC (Staphylococcus aureus, read-out: Minimum Inhibitory Concentration (MIC), S. aureus 14154) came to 0.45 µM.
